Assay results reported in patent publication US20030236218A1, “Aryl phosphate derivatives of d4T with selective activity against adenovirus and HIV” (priority 2002, published 2003).
Like-named read-outs stand apart in the source and are kept apart here.

Assays:
[1] = Stability in plasma; type: in vitro ADME
Method: Plasma samples (200 μL) were mixed 1:4 with acetone (800 μL) and vortexed for at least 30 seconds. Following centrifugation, the supernatant was transferred into a clean tube and was dried under nitrogen. A 50 μL solution of 50% methanol in 200 mM HCl was used to reconstitute the extraction residue, and 40 μL was injected into the HPLC.
The whole blood samples were placed in a 37° C. water bath, while plasma samples were stored at −20° C. At a predetermined time, an aliquot (100 μl) of spiked whole blood or plasma was extracted by adding 400 μl of acetone to induce precipitation of proteins, as described above.

[2] = cats; twice daily hard gelatin capsules 25 mg/kg -100 mg/kg; cumulative dose levels as high as 8.4 g/kg; cited from earlier work
[3] = Stability in murine liver homogenates; type: in vitro ADME, Balb/c mice; conditions: 100 μM; Balb/c mouse liver homogenate
Method: At a predetermined time, an aliquot (100 μl) of spiked liver homogenate was extracted by adding 400 μl of acetone to induce precipitation of proteins, as described above.

[4] = dogs; twice daily hard gelatin capsules 25 mg/kg -100 mg/kg; cumulative dose levels as high as 8.4 g/kg; cited from earlier work
[5] = system: skin fibroblasts; assay: Cytotoxicity in skin fibroblasts (plaque assay); type: cell-based; conditions: ADV plaque formation assay
Method: Plaque formation assays. Plaque assays were used to examine the activity of the compounds against non-HIV viruses. The skin fibroblast cell line SF (ATCC CRL-2097) was used as a target for AD169, Adenovirus Type 5. […] cell line (ATCC CCL-81) was used as a target for HSV HF and G. The HEP-2 cell line (ATCC CCL-23) was used as a target for the RSV strain Long. These cell lines were cultured at 1×10^5 cells/well in 24-well (all but ECHO 30-infected SF) or 6-well (ECHO 30-infected SF) tissue culture plates with 0.9% methylcellulose or 0.4% SeaPlaque agarose semisolid support. Minimum Essential Medium (MEM) with Earle's salts (Gibco), L-glutamine, non-essential amino acids, 2% heat-inactivated fetal bovine serum, 1% penicillin/streptomycin, and 0.05% gentamicin served as the culture medium. The incubation times were 3 days for HF, G, ECHO 30, and Long; and 7 days for AD169 and Adenovirus Type 5. […] Percent inhibition of plaque formation was calculated by comparing the plaque numbers from the test substance-treated infected cells with the plaque numbers from untreated infected cells (i.e., virus controls). The IC50 values were determined using the Statview statistics program (SAS Institute, Inc., Cary, N.C.).

[6] = system: HIV-1 strain HTLV-IIIB; assay: In vitro anti-HIV-1 activity, p24 antigen assay in PBMNC; type: cell-based; conditions: Human immunodeficiency virus 1, HIV-1, HTLV-IIIB, day 7
Description: Virus stocks. The HIV-1 strain used in this study was HTLV-IIIB (Uckun et al., 1998 Antimicro. Agents and Chemother., 42:383-388). The non-HIV viruses included in the present study were the gancyclovir-sensitive cytomegalovirus (CMV) strain AD169 (ATCC VR-538); acyclovir-sensitive herpes simplex virus (HSV) Type I strain HF (ATCC VR-260); acyclovir-sensitive HSV Type II strain G (ATCC VR-734); adenovirus strain Type 5, strain adenoid 75 (ATCC VR-5); enterovirus strain, ECHO 30, strain Bastianni (ATCC VR-322); and respiratory syncytial virus (RSV), strain Long (ATCC VR-26).
In vitro assays of anti-HIV-1 activity. Normal human peripheral blood mononuclear cells (PBMNC) from HIV-negative donors were cultured 72 hours in RPMI 1640 supplemented with 20% (v/v) heat-inactivated fetal bovine serum (FBS), 3% interleukin-2, 2 mM L-glutamine, 25 mM HEPES, 2 g/L NaHCO3, 50 Tg/mL gentamicin, and 4 Tg/mL phytohemagglutinin prior to exposure to HIV-1 at a multiplicity of infection (MOI) of 0.1 during a 1 hour adsorption period at 37° C. in a humidified 5% CO2 atmosphere. Subsequently, cells were cultured in 96-well microtiter plates (100 TL, 2×10^6 cells/mL) in the presence of various concentrations of compounds 113 or 609. Aliquots of culture supernatants were removed from the wells on the seventh day after infection for p24 antigen assays, as previously described. […] Percent viral inhibition was calculated by comparing the p24 values from untreated infected cells (i.e., virus controls).
Statistical analysis. […] An IC50 value was calculated from each set of triplicate wells using nonlinear regression modeling of the exponential form of the linearized equation (Statview, SAS Institute, Inc., Cary, N.C.). Hydrolysis rates were determined by fitting single exponential decay equations to the disappearance of the compound in alkali conditions (all R^2 values greater than 0.85). […]

[7] = Stability in simulated intestinal fluid; type: in vitro ADME; conditions: 100 μM, 37° C.
Method: (§1) The spiked fluids were then placed in a 37° C. water bath. At a predetermined time, 100 μI aliquots of the spiked gastric or intestinal fluid were extracted by adding 400 μl of acetone as discussed above.

[8] = mice, cited from earlier work
[9] = Stability in simulated gastric fluid; type: in vitro ADME; conditions: 100 μM, 37° C., 8 hours, listed as d4T-5′-[p-bromophenyl methoxyalaninyl phosphate]
Method: as §1

With `COC(=O)C(C)NP(=O)(OC[C@@H]1C=C[C@H](n2cc(C)c(=O)[nH]c2=O)O1)Oc1ccc(Br)cc1` (some centres unmarked) [Compound 113, 5′-[4-Bromophenyl methoxylaninylphosphate]-2′, 3′-didehydro-3′-deoxy thymidine] the “time to complete decomposition in plasma” value ([1]; 250 μM) was no more than 30 min, the “decomposed following incubation with plasma” value ([1]; 250 μM, after 5 minutes) was “over 95%” and the “stability in plasma (in words)” value ([1]; spiked plasma, 250 μM compound 113, 100 μM Ala-d4T-MP (followed for 1 day)) was “very unstable”. For the same compound, the “tolerability of four-week treatment course” value [2] was “very well tolerated”, the “time to decomposition in liver homogenate” value [3] was no more than 30 min and the “tolerability of four-week treatment course” value [4] was “very well tolerated”. For the same compound, the “cytotoxicity (in words)” value [5] was “without any evidence of cytotoxicity even at 100 μM”, the IC50 [6] was 1 nM and the “stability in intestinal fluid (in words)” value [7] was “not stable”. For the same compound, the “decomposed in intestinal fluid” value ([7]; within 2 hours) was “approximately 94%”, the “toxicity on daily administration” value ([8]; intraperitoneally or orally for up to 8 consecutive weeks, cumulative dose levels as high as 6.4 g/kg) was “not associated with any detectable toxicity” and the “acute or subacute toxicity” value ([8]; single intraperitoneal or oral bolus dose levels as high as 500 mg/kg) was “very well tolerated without any detectable acute or subacute toxicity”. For the same compound, the “stability in gastric fluid (in words)” value [9] was “relatively stable”.
`Cc1cn([C@H]2C=C[C@@H](CO)O2)c(=O)[nH]c1=O` [d4T, 2′, 3′-Didehydro-3′-deoxy thymidine, reference compound] showed an IC50 [6] of 23 ± 8 nM.
